For data set [1], the system named is Cisd2 promoter with firefly luciferase reporter (HEK293-CISD2). Description: Cisd2-luciferase reporter assay. It is filed as cell-based. The conditions noted are these: Homo sapiens; HEK293-CISD2 cells, 24 h incubation, luciferase activity. Here is the method: Compounds 1-35 were tested for increasing the level of Cisd2 in human embryonic kidney cells 293 (HEK293), a transfected cell line expressing Cisd2, using the Cisd2-luciferase reporter assay as described below.
The transfected HEK293 cells stably expressed Cisd2 promoter with firefly luciferase reporter (“HEK293-CISD2”). They were kept in Dulbecco's modified Eagle's medium (“DMEM”) (Gibco, New York, N.Y.). Culture medium was supplemented with 10% heat-inactivated fetal bovine serum (“FBS”), 2 mM L-Glutamine, 1 mM sodium pyruvate, 0.1% MEM Non-Essential Amino Acids, 1 μg/ml puromycin and 1% penicillin/streptomycin (HyClone, Logan, Utah). The cells were maintained at 37° C. in an incubator (Thermo Fisher Scientific, Waltham, Mass.) with an atmosphere of 5% CO2. The stably transfected cells were seeded in 384-well plates at a density of 3×10^3 cells/well. After incubation with a tested compound at 37° C. for 24 h, ONE-Glo™ Luciferase Assay System (Promega, Madison, Wis.) was added at room temperature for 10 minutes to detect any luciferase activity. Luminescence intensity was registered using plate reader BioTek Synergy Neo2™ (Agilent, Santa Clara, Calif.).
EC50 values in this table are presented in […] classes, i.e., A: <1 μM and B: 1 μM-10 μM.
(In general: In a reporter assay the amount or activity of a reporter protein is the signal.)

A further data set has as its system Cisd2 hKO-het mice. Description: In vivo study for treating nonalcoholic fatty liver disease (NAFLD). The settings on record: 0.015 wt % in diet for 4 weeks. The method, then:
Compound 1 was evaluated for its anti-nonalcoholic fatty liver disease (“NAFLD”) effect and in vivo toxicity following an assay described below.
Cisd2 floxed allele (Cisd2 f/f) mice were prepared following a procedure described in Wang et al., Hum. Mol. Genet.23, 4770-85 (2014). To obtain Cisd2 heterozygous hepatocyte-specific knockout (Cisd2 hKO-het, Cisd2 f/+; Alb-Cre Tg), Cisd2 f/f mice were bred with Albumin-Cre transgenic (Alb-Cre Tg, JAX003574) mice. After one generation, Cisd2 hKO-het mice were obtained. Male mice were chosen to be used in this study. All mice have a pure or congenic C57BL/6 background and were bred/housed in a specific pathogen-free facility with a 12 h light/12 h dark cycle at a temperature of 20-22° C. Groups of mice at 8 weeks old were provided a diet (AIN93G, TestDiet) containing a vehicle (0.14 wt % of DMF and 0.15 wt % of Cremophor® EL) or compound 1 (0.015 wt %) for 4 weeks.
Histopathology was used to evaluate the efficacy of Compound 1 in ameliorating NAFLD. Liver tissues were collected and fixed with 10% neutral buffered formalin at 4° C. overnight. They were then processed in a tissue processor (STP120, Microm, Thermo Fisher Scientific Inc., Waltham, Mass.), followed by embedding in paraffin. H&E of tissue sections (3-4 μm) were carried out by a standard protocol. […]

Another data set deals with WT mice. Description: In vivo fructose-induced NASH model, wild-type mice. The settings on record: 0.015 wt % in diet for 5 months. An excerpt: Compound 1 was used to alleviate nonalcoholic steatohepatitis (NASH) in wild-type and Cisd2 hKO male mice described above.
Cisd2 hKO were bred for two generations. […] They were fed 30% (w/v) fructose (Alfa Aesar, Tewksbury, Mass.) in drinking water to establish a fructose-induced NASH model. Groups of mice at 2 months old were provided with a diet (AIN93G, TestDiet, St. Louis, Mo.) containing a vehicle (0.14 wt % of DMF and 0.15 wt % of Cremophor® EL) or Compound 1 (0.015 wt %) for 5 months. The food and drinking water were provided ad libitum.
Histopathology was used to evaluate the efficacy of Compound 1 in alleviating NASH. Liver tissues were processed and stained as described in Example 3 above.
An oral glucose tolerance test (GTT) and an insulin tolerance test (ITT) were performed to study beneficial effects of Compound 1 in the fructose-induced glucose intolerance and hepatic insulin resistant mouse model. In the oral glucose tolerance test, mice were fasted for 14 hours (7 p.m. to 9 a.m.) and then were orally administrated with glucose water (1.5 mg/g body weight) using a feeding needle. […] Blood glucose levels were measured using OneTouch® Ultra glucose test strips and SureStep® Meter (LifeScan, Milpitas, Calif.). […] Blood samples were collected and monitored at predetermined time points.

As usually defined, the EC50 is the concentration at which the effect is half-maximal. For `COC(=O)c1c(N)sc(C(=O)Nc2ccc(C)cc2C)c1C` [Compound 1, Methyl 2-amino-5-[(2,4-dimethylphenyl)carbamoyl]-4-methylthiophene carboxylate], the EC50 in data set [1] is below 1000 nM. Moreover, the “liver and kidney toxicity (serum ALT, AST, BUN, CRE)” value in the data set with Cisd2 hKO-het mice is “without detectable liver and kidney toxicity”. Besides, the “expression level of Cisd2 protein” value with Cisd2 hKO-het mice (Cisd2+/- mice, control group 0.43) came to 0.7. Moreover, the toxicity entry in the data set on WT mice is recorded as “without obvious toxicity”. For the same molecule, the Cisd2 protein level with WT mice (30% fructose in drinking water, control group 0.4) is given as 0.8.

(Values after patent US20230100367A1, “METHODS OF TREATING CDGSH IRON SULFUR DOMAIN 2 INSUFFICIENCY-ASSOCIATED DISORDERS” (National Yang Ming Chiao Tung University, priority 2021, published 2023).)
